Experimental data published in patent US8614222B2, “Methods of preventing and treating low bone mass diseases” (The Trustees of Columbia University in the City of New York, priority 2008, dated 2013).

Experiments:
Format in all cases: in vivo
peripheral serotonin = experiment: Peripheral serotonin levels in wild-type mice (Example 11); conditions: 5 mice per compound
Description: Serotonin serum levels were quantified using immunoassay kits from Fitzgerald (Serotonin) and serotonin levels in the different regions of the brain were quantified by HPLC method as described previously (Mann et al., 1992, Arch. Gen. Psychiatry 49:442-446).
The following three compounds were tested for their ability to effect peripheral serotonin levels in wild-type mice:
Also tested as a negative control was vehicle alone. Each compound as well as vehicle was administered to 5 mice and the resulting peripheral serotonin levels were as follows: […]

ovariectomized mice [1] = experiment: Bone histomorphometry in ovariectomized mice, preventive and curative regimen
Description: Six-week-old wild-type virgin female mice were purchased from the Jackson Laboratories and subjected to either bilateral ovariectomy or a sham operation after a few days of acclimatization to the animal facility post-arrival. Ovariectomy was performed under isofluorane anesthesia through dorsal, subrenal incision. In the first experiment, mice were treated from day 1 post-ovariectomy for 4 weeks with LP-533,401 (1, 10, 100 or 250 mg/kg/day) or vehicle. In the second experiment, mice were treated for 4 weeks from 2 to 6-weeks post-ovariectomy with LP-533,401 (250 mg/kg/day) or vehicle. […] LP-533,401 was dissolved in polyethylene glycol:5% dextrose (40:60) and given daily by gavage at the doses indicated. Animals were observed daily for any behavioral abnormalities. Mice were sacrificed at the end of the experimental regimen and processed for the skeletal and physiological analysis.
Bone histomorphometry was performed as previously described (Duey et al., 2000, Cell 100:197-207; Takeda et al., 2002, Cell 111:305-317; Parfitt et al., 1987, J. Bone Miner. Res. 2:595-610). Briefly, lumbar vertebrae were dissected, fixed for 24 hr in 10% formalin, dehydrated in graded ethanol series, and embedded in methyl methacrylate resin according to standard protocols (Parfitt et al., 1987, J. Bone Miner. Res. 2:595-610). Von Kossa/Von Gieson staining was performed using 7 μm sections for bone volume over tissue volume (BV/TV) measurement. Bone formation rate (BFR) was analyzed by the calcein double-labeling method (Ducy et al., 2000, Cell 100:197-207). Calcein (Sigma Chemical Co., St. Louis, Mo.) was dissolved in calcein buffer (0.15 M NaCl, 2% NaHCO3) and injected twice at 0.125 mg/g body weight on day 1 and 4, and then mice were killed on day 6. Unstained 4 μm sections were used for bone formation rate (BFR) measurements. For the analysis of parameters of osteoblasts and osteoclasts, 4 μm sections were stained with toluidine blue and tartrate-resistant acid phosphatase (TRAP), respectively (2). Histomorphometric analyses were performed using the Osteomeasure Analysis System (Osteometrics, Atlanta, Ga.).
(§1) Blood samples were collected from mice and rats through cardiac puncture under isoflurane anesthesia, kept on ice for 5 min, and centrifuged at 13,000 rpm for 10 min at 4° C. Serum samples were stored at −80° C. until hormonal analyses were performed. Serum serotonin levels were quantified by ELISA (Serotonin kit, Fitzgerald) while serotonin levels in brain regions were quantified by HPLC as described previously (Mann et al., 1992, Arch. Gen. Psychiatry 49:442-446). Serum levels of total deoxypyridinoline (DPD) cross-links was measured using the Merta tDPD kit (Quidel corp. Sandiago, Calif.) and Osteocalcin using Rat and Mouse Ocn IRMA kit.

brain serotonin = experiment: Brain serotonin content in ovariectomized mice; conditions: OVX mice
Description: Six-week-old wild-type virgin female mice were purchased from the Jackson Laboratories and subjected to either bilateral ovariectomy or a sham operation after a few days of acclimatization to the animal facility post-arrival. Ovariectomy was performed under isofluorane anesthesia through dorsal, subrenal incision. In the first experiment, mice were treated from day 1 post-ovariectomy for 4 weeks with LP-533,401 (1, 10, 100 or 250 mg/kg/day) or vehicle. In the second experiment, mice were treated for 4 weeks from 2 to 6-weeks post-ovariectomy with LP-533,401 (250 mg/kg/day) or vehicle. In the third set of experiments, mice were treated for 6 weeks from 6 to 12-weeks post-ovariectomy with LP-533,401 (250 mg/kg/day) or vehicle. […]
as §1, with “Serum samples were stored at −80° C. until hormonal analyses were performed.” left out

ovariectomized mice [2] = experiment: Gastrointestinal homeostasis and blood coagulation in ovariectomized mice; conditions: OVX mice, 6 weeks
[3] = OVX mice, 250 mg/kg/day for 4 weeks from week 2 post-ovariectomy
[4] = OVX mice, day 1 to 28 post-ovariectomy

Nc1nc(OC(c2ccc(-c3cccc(F)c3)cc2)C(F)(F)F)cc(-c2ccc(C[C@H](N)C(=O)O)cc2)n1 (stereo partly drawn) [LP-533401, (2S)-2-amino-3-(4-(2-amino-6-(2,2,2-trifluoro-1-(3′-fluorobiphenyl-4-yl)ethoxy)pyrimidin-4-yl)phenyl)propanoic acid]
Peripheral serotonin (ng/ml) (mean ± SEM) (peripheral serotonin): 88.56 ± 12.93 ng/mL
bone mass versus sham-operated mice (ovariectomized mice [1]; OVX mice, 25 mg/kg/day for 6 weeks from week 6 post-ovariectomy): similar
bone mass (ovariectomized mice [1]; [3]): normalized
bone resorption parameters (ovariectomized mice [1]; [3]): increased
bone mass versus sham-operated mice (ovariectomized mice [1]; OVX mice, 100 or 250 mg/kg/day for 6 weeks from week 6 post-ovariectomy): significantly higher
bone mass versus vehicle-treated ovariectomized mice (ovariectomized mice [1]; OVX mice, 250, 100 or 10 mg/kg once daily, day 1 to 28 post-ovariectomy): higher
Cyclin D1 expression in the bones (ovariectomized mice [1]; [4]): increase
bone formation rate (ovariectomized mice [1]; [4]): major increase
osteoblast numbers (ovariectomized mice [1]; [4]): major increase
osteocalcin serum levels (ovariectomized mice [1]; [4]): major increase
brain serotonin content (brain serotonin; 250 mg/kg/day for 4 weeks from week 2 post-ovariectomy): unaffected
brain serotonin content (brain serotonin; day 1 to 28 post-ovariectomy): unaffected
coagulation rates versus vehicle (ovariectomized mice [2]): similar
colonic mobility (ovariectomized mice [2]; up to 250 mg/kg/day): None of these parameters were affected
gastric emptying (ovariectomized mice [2]; up to 250 mg/kg/day): None of these parameters were affected
total gastrointestinal transit (ovariectomized mice [2]; up to 250 mg/kg/day): None of these parameters were affected
